Laboratory results taken from patent US12624018B1, “Inhibitors of RIPK2 and medical uses thereof” (Odyssey Therapeutics, Inc., priority 2022, dated 2026).
Read-outs that look alike come from different tables or passages of the source.

Experiments:
human NOD2 signaling = assay: Inhibition of human NOD2 signaling in HEK-Blue-hNOD2 cells (L18-MDP stimulated, SEAP reporter); format: cell-based; settings: NOD2 ligand stimulation, SEAP reporter, read-out: hNOD2 IC50
In short: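 Read-out is SEAP absorbance at 620 nm after 3 h QUANTI-Blue development of supernatant from HEK293 cells carrying NOD2 and a SEAP reporter (12500/well). Cells got compound (10 points, 3-fold dilutions) and 0.5 ng/mL L18-MDP for 24 h at 37 °C; percent inhibition vs stimulated/unstimulated controls, 4-parameter IC50.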

[1] = biological target: T1, RIPK2 and XIAP protein-protein interaction (Homo sapiens, UniProt O43353); assay: Inhibition of the interaction of RIPK2 with XIAP (NanoBRET in HEK293T cells); format: cell-based; settings: RIPK2 HaloTag / XIAP NanoLuc, read-out: NanoBRET Scaffolding IC50
T1 construct: the N-terminus of full-length RIPK2 was appended with the HaloTag fusion protein; expressed in transfected cells; host or cells: HEK293T
In short: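 HEK293T cells transiently co-transfected with HaloTag-RIPK2 (N-terminal) and XIAP-NanoLuc (C-terminal) full-length fusions, grown 24 h at 37° C. in Opti-MEM with 4% FBS. Compounds tested as 10-point 3-fold dilutions; NanoBRET ratio taken as 618 nm acceptor over 460 nm donor emission.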

[2] = system: TNF-alpha secretion in human whole blood; assay: Inhibition of TNF-alpha secretion in human whole blood (IFN-gamma primed, L18-MDP stimulated); format: cell-based; settings: L18-MDP 100 ng/mL, read-out: Human Whole Blood TNFα IC50
Procedure: Materials: Assay medium consisted of RPMI 1640 medium (catalogue number: 11875119) and 10% heat inactivated FBS (Cytvia). U-PLEX Biomarker Assay (cat #K15067L-4) to detect levels of TNF-alpha was purchased from Meso Scale Discovery. Heparinized whole blood from healthy donors/volunteers was obtained through Research Blood Components, LLC.
Test compounds were prepared into a 10 mM DMSO solution and serially diluted into 9 points using a 3-fold dilution in a 96 well plate. A 10× working stock solution of recombinant human IFN-gamma (final concentration of 10 ng/mL) was prepared in assay medium and used to prepare a 10× solution of test compound. 20 μL of 10×IFN-gamma and test compound (or DMSO control) was added to a 96-well plate. 160 μL of heparinized whole blood obtained from healthy donors was dispensed into individual wells of the 96-well plate and placed on a plate shaker (150 rpm) and incubated for 60 min at 37° C. in a CO2 incubator. Subsequently, 20 μL of L18-MDP (final concentration of 100 ng/mL) was added to the appropriate wells and further incubated for 16 hours on a plate shaker (150 rpm) at 37° C. in a CO2 incubator. The final concentration of DMSO was 0.05% (v/v) in all wells. After incubation, 100 μL of DPBS was added per well, mixed by shaking at 500 rpm for 2 minutes, followed by centrifugation (400×g for 10 minutes) and collection of supernatants. TNF-alpha in supernatants was measured using MSD immunoassay (MesoScale Discovery). 4-parametric curve fit was used to determine the test compound concentration that results in 50% reduction of TNF-alpha concentration in supernatant relative to assay controls.

RIPK2 enzyme = biological target: T2, RIPK2 enzyme (Homo sapiens, UniProt O43353); assay: RIPK2 inhibition (ADP-Glo Kinase Assay); format: biochemical; settings: RIPK2 5 nM, ATP 150 μM, MBP substrate, read-out: RIPK2 IC50
T2 construct: purchased Carna 09-128
In short: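 Swine MBP substrate; compound and 5 nM RIPK2 first mixed for 30 min at room temperature; buffer pH 7.5 HEPES 50 mM with 10 mM MgCl2, 2 mM DTT, 1 mM EGTA, Brij-35, BSA.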

[3] = Homo sapiens, HEK-Blue hNOD2, HEK-Blue-hNOD2 cells

T1 sequence (O43353 whole entry, the tested form may be a part): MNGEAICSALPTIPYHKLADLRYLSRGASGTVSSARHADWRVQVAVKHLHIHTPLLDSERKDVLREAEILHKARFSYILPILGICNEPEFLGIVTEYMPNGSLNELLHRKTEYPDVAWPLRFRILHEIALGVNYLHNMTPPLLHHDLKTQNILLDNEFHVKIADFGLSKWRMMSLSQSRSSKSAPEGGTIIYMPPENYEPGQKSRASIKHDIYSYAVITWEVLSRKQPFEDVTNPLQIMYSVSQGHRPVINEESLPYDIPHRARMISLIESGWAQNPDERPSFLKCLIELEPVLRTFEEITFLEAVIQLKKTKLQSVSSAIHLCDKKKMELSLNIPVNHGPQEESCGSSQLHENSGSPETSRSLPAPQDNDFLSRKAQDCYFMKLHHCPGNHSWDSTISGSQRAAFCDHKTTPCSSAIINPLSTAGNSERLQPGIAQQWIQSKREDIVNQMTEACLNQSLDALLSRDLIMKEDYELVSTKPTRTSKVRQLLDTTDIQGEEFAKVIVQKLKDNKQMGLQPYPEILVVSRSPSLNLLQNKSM
T2 sequence (O43353 1-299 limits assumed): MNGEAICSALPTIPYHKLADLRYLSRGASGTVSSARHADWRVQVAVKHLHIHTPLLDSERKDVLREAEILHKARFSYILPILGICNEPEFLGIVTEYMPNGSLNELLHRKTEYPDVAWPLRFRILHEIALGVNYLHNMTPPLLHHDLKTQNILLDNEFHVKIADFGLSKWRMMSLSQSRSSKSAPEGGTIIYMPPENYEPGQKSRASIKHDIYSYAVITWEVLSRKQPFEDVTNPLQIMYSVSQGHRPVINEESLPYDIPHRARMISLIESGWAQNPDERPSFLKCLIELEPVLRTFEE

IC50 [1]	IC50 (RIPK2 enzyme)	IC50 (human NOD2 signaling; [3])	IC50 ([2]; Homo sapiens, 16 h)	Structure (SMILES)	IC50 (human NOD2 signaling; HEK-Blue-hNOD2 cells)	IC50 ([2]; 16 hours)
123 nM	< 2.5 nM	–	–	Cc1cc(CC(=O)Nc2cnn(C(C)(C)C)c2)ccc1Oc1ccnc2ccc(S(=N)(=O)C3CC3)cc12 (single isomer, unassigned) [Compound 544, N-(1-(tert-butyl)-1H-pyrazol-4-yl)-2-(4-((6-(cyclopropanesul-fonimidoyl)quinolin-4-yl)oxy)-3-methylphenyl) acetamide]	2 nM	4.5 nM
69.1 nM	< 2.5 nM	2.1 nM	8.4 nM	Cc1cc(CC(=O)Nc2cnn(C(C)(C)C)c2)cc(F)c1Oc1ccnc2ccc(C(N)=O)cc12 [Compound 468, 4-(4-(2-((1-(tert-butyl)-1H-pyrazol-4-yl)amino)-2-oxoethyl)-2-fluoro-6-methylphenoxy)quinoline-6-carboxamide]	–	–
11 nM	< 2.5 nM	1.1 nM	83 nM	Cc1cc(CC(=O)Nc2nnc(C(C)(C)C)s2)c(F)cc1Oc1ccnc2ccc(S(C)(=O)=O)cc12 [Compound 443, N-(5-(tert-butyl)-1,3,4-thiadiazol-2-yl)-2-(2-fluoro-5-methyl-4-((6-(methylsulfonyl)quinolin-4-yl)oxy)phenyl) acetamide]	–	–
144 nM	10.4 nM	21.7 nM	12 nM	CN1CCC(Oc2ccc3ncnc(Oc4cnc(CC(=O)Nc5cnn(C(C)(C)C)c5)c(F)c4)c3c2)CC1 [Compound 20, N-(1-(tert-butyl)-1H-pyrazol-4-yl)-2-(3-fluoro-5-((6-((1-methylpiperidin-4-yl)oxy)quinazolin-4-yl)oxy)pyridin-2-yl)acetamide]	–	–
218 nM	4.8 nM	39.3 nM	5 nM	CC(C)(C)n1cc(NC(=O)Cc2ccc(Oc3ccnc4ccc(S(C)(=N)=O)cc34)cc2F)cn1 (stereo not drawn) [Compound 43, N-(1-(tert-butyl)-1H-pyrazol-4-yl)-2-(2-fluoro-4-((6-(S-methylsulfonimidoyl)quinolin-4-yl)oxy)phenyl)acetamide]	–	–
77.5 nM	< 2.5 nM	1.2 nM	3 nM	Cc1cc(CC(=O)Nc2cnn(C(C)(C)C)c2)ccc1Oc1ccnc2ccc(S(=N)(=O)C3CC3)cc12 (single isomer, unassigned) [Compound 543, N-(1-(tert-butyl)-1H-pyrazol-4-yl)-2-(4-((6-(cyclopropanesul-fonimidoyl)quinolin-4-yl)oxy)-3-methylphenyl) acetamide]	–	–
39 nM	< 2.5 nM	3.2 nM	55 nM	Cc1cc(C(C)C(=O)Nc2cnn(C(C)(C)C)c2)ccc1Oc1ccnc2ccc(S(C)(=O)=O)cc12 (single isomer, unassigned) [Compound 215, N-(1-(tert-butyl)-1H-pyrazol-4-yl)-2-(3-methyl-4-((6-(methylsulfonyl)quinolin-4-yl)oxy)phenyl)propanamide]	–	–
6 nM	7.6 nM	11.4 nM	103 nM	COc1ccc2ncnc(Oc3ccc(CC(=O)Nc4cnn(C(C)(C)C)c4)c(F)c3)c2c1 [Compound 8, N-(1-(tert-butyl)-1H-pyrazol-4-yl)-2-(2-fluoro-4-((6-methoxy-quinazolin-4-yl)oxy)phenyl) acetamide]	–	–
13.3 nM	< 2.5 nM	0.3 nM	4.1 nM	Cc1c(Oc2ccnc3ccc(S(C)(=O)=O)cc23)cc(F)c(CC(=O)Nc2cnn(C(C)(C)C)c2)c1F [Compound 472, N-(1-(tert-butyl)-1H-pyrazol-4-yl)-2-(2,6-difluoro-3-methyl-4-((6-(methylsulfonyl)quinolin-4-yl)oxy)phenyl)acetamide]	–	–
93 nM	< 2.5 nM	4 nM	24 nM	CC(C)(C)n1cc(NC(=O)Cc2ccc(Oc3ccnc4ccc(S(C)(=N)=O)cc34)c(Cl)c2)cn1 (single isomer, unassigned) [Compound 197, N-(1-(tert-butyl)-1H-pyrazol-4-yl)-2-(3-chloro-4-((6-(S-methylsulfonimidoyl)quinolin-4-yl)oxy)phenyl)acetamide]	–	–
204 nM	< 2.5 nM	–	–	CCS(=N)(=O)c1ccc2nccc(Oc3ccc(CC(=O)Nc4cnn(C(C)(C)C)c4)cc3C)c2c1 (single isomer, unassigned) [Compound 546, N-(1-(tert-butyl)-1H-pyrazol-4-yl)-2-(4-((6-(ethylsulfonimidoyl)quinolin-4-yl)oxy)-3-methylphenyl) acetamide]	1.4 nM	4 nM
73 nM	< 2.5 nM	3.4 nM	49 nM	Cc1cc(CC(=O)Nc2cnn(C(C)(C)C)c2)cc(F)c1Oc1ccnc2ccc(S(C)(=O)=O)cc12 [Compound 299, N-(1-(tert-butyl)-1H-pyrazol-4-yl)-2-(3-fluoro-5-methyl-4-((6-(methylsulfonyl)quinolin-4-yl)oxy)phenyl)acetamide]	–	–
4.2 nM	< 2.5 nM	0.2 nM	2.6 nM	Cc1cc(CC(=O)Nc2cnn(C(C)(C)C)c2)c(F)cc1Oc1ccnc2cc(F)c(C(N)=O)cc12 [Compound 465, 4-(4-(2-((1-(tert-butyl)-1H-pyrazol-4-yl)amino)-2-oxoethyl)-5-fluoro-2-methylphenoxy)-7-fluoroquinoline-6-carboxamide]	–	–
95.8 nM	< 2.5 nM	1 nM	2 nM	[2H]C([2H])([2H])NC(=O)c1ccc2nccc(Oc3ccc(CC(=O)Nc4cnn(C56CC(C5)C6)c4)cc3C)c2c1 [Compound 559, 4-(4-(2-((1-(bicyclo[1.1.1]pentan-1-yl)-1H-pyrazol-4-yl)amino)-2-oxoethyl)-2-methylphenoxy)-N-(methyl-d3)quinoline-6-carboxamide]	–	–
8 nM	< 2.5 nM	0.2 nM	6 nM	Cc1c(Oc2ccnc3ccc(S(=N)(=O)C4CC4)cc23)ccc(CC(=O)Nc2cnn(C(C)(C)C)c2)c1F (single isomer, unassigned) [Compound 441, N-(1-(tert-butyl)-1H-pyrazol-4-yl)-2-(4-((6-(cyclopropanesulfonimidoyl)quinolin-4-yl)oxy)-2-fluoro-3-methylphenyl)acetamide]	–	–
184 nM	< 2.5 nM	1.8 nM	5.9 nM	CCS(=N)(=O)c1ccc2nccc(Oc3ccc(CC(=O)Nc4cnn(C(C)(C)C)c4)cc3C)c2c1 (single isomer, unassigned) [Compound 545, N-(1-(tert-butyl)-1H-pyrazol-4-yl)-2-(4-((6-(ethylsulfonimidoyl)quinolin-4-yl)oxy)-3-methylphenyl) acetamide]	–	–

Structure (SMILES)	IC50 [1]	IC50 (RIPK2 enzyme)	IC50 (human NOD2 signaling; [3])	IC50 ([2]; Homo sapiens, 16 h)	IC50 (human NOD2 signaling; HEK-Blue-hNOD2 cells)	IC50 ([2]; 16 hours)
Cc1cc(CC(=O)Nc2cnn(C(C)(C)C)c2)ccc1Oc1ncnc2ccc(OC3CCN(C)CC3)cc12 [Compound 84, N-(1-(tert-butyl)-1H-pyrazol-4-yl)-2-(3-methyl-4-((6-((1-methyl-piperidin-4-yl)oxy)quinazolin-4-yl)oxy)phenyl) acetamide]	37 nM	9.3 nM	–	–	19.2 nM	4 nM
Cc1cc(CC(=O)Nc2cnn(C(C)(C)C)c2)ccc1Oc1ccnc2ccc(OC3CCN(C)CC3)cc12 [Compound 82, N-(1-(tert-butyl)-1H-pyrazol-4-yl)-2-(3-methyl-4-((6-((1-methyl-piperidin-4-yl)oxy)quinolin-4-yl)oxy)phenyl) acetamide]	6 nM	< 2.5 nM	–	–	1.9 nM	4 nM
